From patent publication US20090012051A1, “EXTERNAL PREPARATION” (KYOWA HAKKO KOGYO CO., LTD., priority 2005, published 2009) come the findings set out here.

The data set can be described thus: Solubility of Compound (I) in solvent components. The data set is classed as physicochemical.

Structures are written as SMILES. In brackets after ≈: the same amount, converted by molar mass.

By solubility is commonly meant how much of the substance goes into solution per volume. Consider `COc1ccc(C(=O)Cc2c(Cl)cncc2Cl)c2c1OC1(CCCC1)O2` [Compound (I), 7-[2-(3,5-dichloro-4-pyridyl)-1-oxoethyl]-4-methoxy-spiro[1,3-benzodioxol-2,1′-cyclopentane]], for which the solubility was roughly 10 mg/mL (≈ 25.4 mM) (oil or lipid, in isopropyl myristate); roughly 100 mg/mL (≈ 254 mM) (organic solvent or mixture, in benzyl alcohol); roughly 33 mg/mL (≈ 83.7 mM) (organic solvent or mixture, in propylene carbonate); roughly 3 mg/mL (≈ 7.61 mM) (organic solvent or mixture, in propylene glycol).
